# Measurements taken from PMC7567791 (Scientific Reports, 2020).
# Molecular target: T1, μ-OR (Homo sapiens, UniProt P35372)
# T1 construct: expressed in transfected cells; host or cells: HEK293A parental, ΔGRK2, ΔGRK3, ΔGRK2/3 (and Δβ-arrestin1/2) cells
# Format: cell-based
# T1 sequence (P35372 whole entry): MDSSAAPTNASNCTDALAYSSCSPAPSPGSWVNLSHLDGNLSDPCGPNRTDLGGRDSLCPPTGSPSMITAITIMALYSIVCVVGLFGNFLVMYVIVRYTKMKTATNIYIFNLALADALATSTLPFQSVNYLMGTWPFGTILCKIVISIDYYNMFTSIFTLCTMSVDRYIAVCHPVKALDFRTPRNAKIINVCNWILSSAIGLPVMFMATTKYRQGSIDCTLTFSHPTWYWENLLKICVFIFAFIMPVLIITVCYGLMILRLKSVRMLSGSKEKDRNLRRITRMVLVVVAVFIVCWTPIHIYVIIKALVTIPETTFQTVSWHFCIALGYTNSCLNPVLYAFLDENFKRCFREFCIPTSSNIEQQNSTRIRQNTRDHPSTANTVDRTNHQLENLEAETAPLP
smiles,measurement,value
"C[C@@H](NC(=O)[C@@H](N)Cc1ccc(O)cc1)C(=O)NCC(=O)N(C)[C@@H](Cc1ccccc1)C(=O)NCCO [DAMGO, D-Ala(2)-mephe(4)-gly-ol(5))enkephalin]",time of peak in β-arrestin2 recruitment to μ-OR-EYFP,6 min
